Reference: ChEMBL document CHEMBL1201862, “PubChem BioAssay data set” (2004)
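Each compound was tested at five concentrations against cells in 96-well plates for 48 hours. GI50: concentration for 50% inhibition of growth.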 Active and inactive are the calls of the source. Cut-off read from the data, not from the text of the source: active = GI50 up to about 1.1 µM and inactive = higher.

Assays:
Experiment in all cases: NCI-60 cell line screen, 48 h
[1] = test system: 786-0
[2] = test system: A498
[3] = test system: A549
[4] = test system: ACHN
[5] = test system: CAKI-1
[6] = test system: CCRF-CEM
[7] = test system: COLO 205
[8] = test system: DLD-1
[9] = test system: DMS-114
[10] = test system: DMS-273
[11] = test system: EKVX
[12] = test system: HCC 2998
[13] = test system: HCT-116
[14] = test system: HCT-15
[15] = test system: HL-60
[16] = test system: HOP-18
[17] = test system: HOP-62
[18] = test system: HT-29
[19] = test system: IGROV-1
[20] = test system: K562
[21] = test system: KM-20L2
[22] = test system: KM12
[23] = test system: LOX IMVI
[24] = test system: LXFL 529
[25] = test system: M19-MEL
[26] = test system: MOLT-4
[27] = test system: Malme-3M
[28] = test system: NCI-H226
[29] = test system: NCI-H23
[30] = test system: NCI-H522
[31] = test system: OVCAR-3
[32] = test system: OVCAR-4
[33] = test system: OVCAR-5
[34] = test system: OVCAR-8
[35] = test system: RPMI-8226
[36] = test system: RXF 631
[37] = test system: SF-268
[38] = test system: SF-295
[39] = test system: SF-539
[40] = test system: SK-MEL-28
[41] = test system: SK-MEL-2
[42] = test system: SK-MEL-5
[43] = test system: SK-OV-3
[44] = test system: SN12C
[45] = test system: SNB-19
[46] = test system: SNB-75
[47] = test system: SNB-78
[48] = test system: SW-620
[49] = test system: TK-10
[50] = test system: U-251
[51] = test system: UACC-257
[52] = test system: UACC-62
[53] = test system: UO-31
[54] = test system: XF498
[55] = test system: HOP-92
[56] = test system: M14
[57] = test system: NCI-H460
[58] = test system: RXF 393
[59] = test system: SR

O=c1ccn(/C=C/C(O)C(O)CO)c(=O)[nH]1 (configuration not stated)
GI50 [1]: > 100 µM (inactive)
GI50 [2]: > 100 µM (inactive)
GI50 [3]: > 100 µM (inactive)
GI50 [4]: > 100 µM (inactive)
GI50 [5]: > 100 µM (inactive)
GI50 [6]: > 100 µM (inactive)
GI50 [7]: > 100 µM (inactive)
GI50 [8]: > 100 µM (inactive)
GI50 [9]: > 100 µM (inactive)
GI50 [10]: > 100 µM (inactive)
GI50 [11]: > 100 µM (inactive)
GI50 [12]: > 100 µM (inactive)
GI50 [13]: > 100 µM (inactive)
GI50 [14]: > 100 µM
GI50 [15]: > 100 µM (inactive)
GI50 [16]: > 100 µM (inactive)
GI50 [17]: > 100 µM (inactive)
GI50 [18]: > 100 µM (inactive)
GI50 [19]: > 100 µM (inactive)
GI50 [20]: > 100 µM (inactive)
GI50 [21]: > 100 µM (inactive)
GI50 [22]: 21.7 µM (inactive)
GI50 [23]: > 100 µM (inactive)
GI50 [24]: > 100 µM (inactive)
GI50 [25]: > 100 µM (inactive)
GI50 [26]: > 100 µM (inactive)
GI50 [27]: > 100 µM (inactive)
GI50 [28]: > 100 µM (inactive)
GI50 [29]: > 100 µM (inactive)
GI50 [30]: > 100 µM (inactive)
GI50 [31]: > 100 µM (inactive)
GI50 [32]: > 100 µM (inactive)
GI50 [33]: > 100 µM (inactive)
GI50 [34]: > 100 µM (inactive)
GI50 [35]: > 100 µM (inactive)
GI50 [36]: > 100 µM (inactive)
GI50 [37]: > 100 µM (inactive)
GI50 [38]: > 100 µM (inactive)
GI50 [39]: > 100 µM (inactive)
GI50 [40]: > 100 µM (inactive)
GI50 [41]: > 100 µM (inactive)
GI50 [42]: > 100 µM (inactive)
GI50 [43]: > 100 µM (inactive)
GI50 [44]: > 100 µM (inactive)
GI50 [45]: > 100 µM (inactive)
GI50 [46]: > 100 µM (inactive)
GI50 [47]: > 100 µM (inactive)
GI50 [48]: > 100 µM (inactive)
GI50 [49]: > 100 µM (inactive)
GI50 [50]: > 100 µM (inactive)
GI50 [51]: > 100 µM (inactive)
GI50 [52]: > 100 µM (inactive)
GI50 [53]: > 100 µM (inactive)
GI50 [54]: > 100 µM (inactive)

CCCCCCCCCCCCCCCc1ccc(OCC(O)CO)cc1 (configuration not stated)
GI50 [2]: 89.5 µM (inactive)
GI50 [3]: 22.6 µM (inactive)
GI50 [4]: 65 µM (inactive)
GI50 [5]: 31.6 µM (inactive)
GI50 [6]: > 100 µM (inactive)
GI50 [7]: 23.6 µM (inactive)
GI50 [8]: 44.2 µM (inactive)
GI50 [9]: 29.7 µM (inactive)
GI50 [10]: 17.7 µM (inactive)
GI50 [11]: 31.9 µM (inactive)
GI50 [12]: 22.9 µM (inactive)
GI50 [13]: 17.1 µM (inactive)
GI50 [14]: 81.8 µM
GI50 [15]: 27.7 µM (inactive)
GI50 [16]: > 100 µM (inactive)
GI50 [17]: 47.1 µM (inactive)
GI50 [55]: 20.7 µM (inactive)
GI50 [18]: 21.7 µM (inactive)
GI50 [19]: 31.3 µM (inactive)
GI50 [20]: > 100 µM (inactive)
GI50 [21]: 31.6 µM (inactive)
GI50 [22]: 17.2 µM (inactive)
GI50 [23]: 18.2 µM (inactive)
GI50 [24]: 26.7 µM (inactive)
GI50 [56]: 17.9 µM (inactive)
GI50 [25]: 18 µM (inactive)
GI50 [26]: > 100 µM (inactive)
GI50 [27]: 22.4 µM (inactive)
GI50 [28]: 25.7 µM (inactive)
GI50 [29]: 17.8 µM (inactive)
GI50 [57]: 24.3 µM (inactive)
GI50 [30]: 18.2 µM (inactive)
GI50 [31]: 23 µM (inactive)
GI50 [32]: 16.3 µM (inactive)
GI50 [33]: > 100 µM (inactive)
GI50 [34]: 25.7 µM (inactive)
GI50 [35]: 18.9 µM (inactive)
GI50 [58]: 18.7 µM (inactive)
GI50 [36]: 27.1 µM (inactive)
GI50 [37]: 27.9 µM (inactive)
GI50 [38]: 50.1 µM (inactive)
GI50 [39]: 49.7 µM (inactive)
GI50 [40]: 25.6 µM (inactive)
GI50 [41]: 18.9 µM (inactive)
GI50 [42]: 34 µM (inactive)
GI50 [43]: 99.3 µM (inactive)
GI50 [44]: 18 µM (inactive)
GI50 [45]: 40.1 µM (inactive)
GI50 [46]: 27 µM (inactive)
GI50 [47]: 29.7 µM (inactive)
GI50 [59]: > 100 µM (inactive)
GI50 [48]: 22.3 µM (inactive)
GI50 [49]: > 100 µM (inactive)
GI50 [50]: 23.7 µM (inactive)
GI50 [51]: 38.8 µM (inactive)
GI50 [52]: 23.9 µM (inactive)
GI50 [53]: > 100 µM (inactive)
GI50 [54]: 19.4 µM (inactive)
